Experimental data taken from US11433136B2, “Polyacetal polymers, conjugates, particles and uses thereof” (THE GENERAL HOSPITAL CORPORATION, priority 2015, dated 2022).

Tested on: orthotopic PAN02 pancreatic tumors
Experiment: Orthotopic PAN02 pancreatic tumor study in lean and obese mice
Format: in vivo, mouse
Settings: for gene and protein expression of activated PSC marker αSMA in tumors: losartan 90 mg/Kg i.p. every day
Excerpt: Wild-type (WT) C57BL/6 and FVB male mice were originally obtained from Jackson Laboratory (The Jackson Laboratory, Bar Harbor, Me.) and bred and maintained in our defined-flora colony. KPC (Ptf1-Cre/LSL-KRAS^G12D/p53-R172H) and iKRAS (p48-Cre;R26-rtTa-IRES-EGFP;TetO-Kras^G12D mice) mice were obtained. To generate an obese model, mice (6-week old) were given either 10% or a 60% fat diet (D12450J and D12492, Research Diets, New Brunswick, N.J.) for 10 weeks (or until tumor collection in spontaneous models), as previously described (Surwit, R. S., et al. Metabolism: clinical and experimental 44, 645-651 (1995)). For implanted tumor experiments, AK4.4 cells (KrasG12D and p53 ? /) were isolated from mice generating spontaneous pancreatic tumors (Ptf1-Cre/LSL-Kras^G12D/p53Lox/ ? ) (Bardeesy, N., et al. Proc Natl Acad Sci USA 103, 5947-5952 (2006)). Orthotopic pancreatic tumors were generated by implanting a small piece (1 mm^3) of viable tumor tissue (from a source tumor in a separate animal) into the pancreas of a 6-8 week-old male lean or obese FVB (AK4.4 model) or C57BL/6 (PAN02 model) mouse. PAN02 tumor chunks and AK4.4 cells were authenticated by IDEXX laboratories. (PAN02: IDEXX RADIL Case #22366-2013. AK4.4: IDEXX RADIL Case #27818-2014). For AT1- and AT2-knockout studies, tumors were implanted into the pancreas of a 6-8-week-old male lean or obese C57BL/6, agtr1a−/− or agtr2−/− mice. With exception of PAN02, these orthotopically grown pancreatic cancers are characterized by a dense collagenous stroma, a hallmark of pancreatic cancer desmoplasia (Diop-Frimpong, B., et al. Proc Natl Acad Sci USA 108, 2909-2914 (2011)).
For all experiments unless specified below, mice bearing orthotopic PAN02 or AK4.4 pancreatic tumors were randomized into treatment groups (or no treatment) and tumors were collected at day 21 after implantation. For tumor growth study with chemotherapy, mice were divided into treatment groups 7 days after implantation, and treated with either 5-FU (30 mg/Kg i.v. every 4 days) or an equal volume of saline by intravenous injection on days 7, 11 and 15 after implantation, with tumors collected at day 19. For tumor growth study with losartan, mice were treated with losartan (90 mg/Kg i.p. every day) or an equal volume of PBS intraperitoneally starting on day 5 after implantation and for the duration of the study. In the combined experiment of losartan and 5-FU, the same protocol was used for each drug as described above. TAN depletion by a Ly6G specific inhibitor (BioExcell, 4 mg/Kg i.p. every 2 days) was administered to PAN02 bearing animals starting at day 1 or day 7, and to AK4.4 bearing animals at day 7. IL-1β inhibition (MM425B, Endogen/Pierce Biotechnology, 2 mg/Kg i.p. every 2 days) was administered to PAN02 bearing animals starting at day 7. At the completion of the study, adipose tissue and tumor samples were collected, weighed, and processed for further analysis. When spontaneous models were used, tumors were collected when palpable.
To assess obesity-induced ECM remodeling and fibrosis fibrillar collagen accumulation was quantified using second harmonic generation imaging, and collagen-I content, hyaluronan, MMPs levels and fibrosis related signaling pathways (e.g. AT-I, CTGF, TSP 1, TGFβ1, and P38/ERK signaling) were measured by rtPCR array, immunohistochemistry and immunoblotting. The topographical distribution and density of cancer-associated fibroblasts (CAFs) in tumor sections was detected by staining for αSMA activated fibroblast marker. Vessel morphology and perfusion was assessed using standard histological analyses.
Mice bearing orthotopic PAN02 were injected with 30 mg/kg of 5-FU 3 weeks after tumor implantation, administered retro-orbitally 30 min prior to tumor removal. The tissue was dabbed of excess blood and then snap-frozen in liquid nitrogen for analysis. […]

delivery of 5-FU to tumors (tumors in obese mice versus lean, 30 mg/kg, 30 min prior to tumor removal) | SMILES | gene and protein expression of activated PSC marker αSMA in tumors (lean mice) | response to chemotherapy with AT1 blockade (obese but not lean animals, losartan plus 5-FU) | tumor weight, losartan monotherapy (obese mice) | gene and protein expression of activated PSC marker αSMA in tumors (obese mice) | obesity-induced abnormal expression of desmoplasia-related markers and AT1 downstream signaling (obese mice, effects only modest in lean animals) | gene and protein expression of collagen-I and fibrillar collagen in tumors (obese, but not lean mice, losartan) | reduction in tumor weight as compared to untreated controls (lean mice, 3 doses of 5-FU 30 mg/kg BW q4d) | effect on tumor weight (obese mice, 3 doses of 5-FU 30 mg/kg BW q4d)
 | CCCCc1nc(Cl)c(CO)n1Cc1ccc(-c2ccccc2-c2nn[nH]n2)cc1 [losartan] | only mildly | enhanced | reduced tumor weight | reduce | normalized | decrease |  | 
decreased | O=c1[nH]cc(F)c(=O)[nH]1 [Example 5-FU, 5-fluorouracil] |  |  |  |  |  |  | 50% | did not significantly reduce tumor weight
